# Test system: HL-60
# Experiment: Cytotoxicity against human HL60 cells
# Format: functional, cell-based
row,Structure (SMILES),IC50 [µg/mL]
1,C\C(=C/C=C/C(C)=C1/C(=O)C[C@H]2[C@@]3(C)CC[C@H](O)[C@](C)(CO)[C@@H]3CC[C@]12C)c1ccc(C)c(=O)o1 [RHABDASTRELLIN A],4.2
2,CC(/C=C/C=C(C)/C=C/C(O)C(C)(C)O)=C1/C(=O)C[C@H]2[C@@]3(C)CC[C@H](O)[C@](C)(CO)[C@@H]3CC[C@]12C (stereo partly specified) [RHABDASTRELLIN B],> 10
3,CC(/C=C/C(O)C(C)(C)O)=C\C=C\C(C)=C1\C(=O)C[C@H]2[C@@]3(C)CC[C@H](O)[C@](C)(CO)[C@@H]3CC[C@]12C (stereo partly specified) [RHABDASTRELLIN C],> 10
4,C/C(C(=O)/C=C/C(C)=C/C=C/C(C)(C)O)=C1/C(=O)C[C@H]2[C@@]3(C)CC[C@H](O)[C@](C)(CO)[C@@H]3CC[C@]12C [RHABDASTRELLIN D],> 10
5,COC(=O)/C(C)=C/C=C/C(C)=C/C=C/C(C)=C1/C(=O)C[C@H]2[C@@]3(C)CC[C@H](O)C(C)(C)[C@@H]3CC[C@]12C [RHABDASTRELLIN E],> 10
6,COC(=O)/C(C)=C/C=C/C(C)=C/C=C/C(C)=C1\C(=O)C[C@H]2[C@@]3(C)CC[C@H](O)C(C)(C)[C@@H]3CC[C@]12C [RHABDASTRELLIN F],> 10

# From ChEMBL document CHEMBL1140179, “Rhabdastrellins A-F, isomalabaricane triterpenes from the marine sponge Rhabdastrella aff. distincta” (J Nat Prod, 2008)
